Test results taken from US11517645B2, “Bone-tendon graft biomaterial, use as a medical device and method of making same” (The Board of Trustees of the Leland Stanford Junior …, priority 2016, dated 2022).

B1: GDF-7: growth and differentiation factor-7 (Sino Biological), tendon-promoting cue (protein, UniProt Q7Z4P5 322-450, looked up)
Growth/differentiation factor …: TALAGTRTAQGSGGGAGRGHGRRGRSRCSRKPLHVDFKELGWDDWIIAPLDYEAYHCEGLCDFPLRSHLEPTNHAIIQTLLNSMAPDAAPASCCVPARLSPISILYIDAANNVVYKQYEDMVVEACGCR

How the values were obtained:
[1] = tested on: C2C12 cells; assay: TENASCIN C and TENOMODULIN immunofluorescence, C2C12 on TCPS with FGF-2; type: cell-based, mouse; details: 50 or 100 ng/mL FGF-2, TCPS, 3 days
Experimental: (§1) Immunofluorescence staining was performed as previously described with minor modifications^18,19.
For in vitro studies not involving QHM polymers, C2C12 cells were seeded into 24 well plates at a density of 7.47×10^4 cells per cm^2 in DMEM, 10% FBS, 1% PS media. The following day (Day 0), the media were changed to DMEM, 10% FBS, 1% PS with 0, 50 or 100 ng/mL FGF-2. Media were changed every 48 h. Cells were fixed in 4% paraformaldehyde (Electron Microscopy Sciences, Hatfield, Pa.) for 15 min and TENOMODULIN or TENASCIN C staining was performed at 3 days post-seeding.
(§2) Samples were permeabilized with 0.2% Triton X-100 (Sigma Aldrich, St. Louis, Mo.), washed three times in wash buffer (PBS and 0.1% BSA) and blocked with 10% donkey serum (Jackson Immunoresearch, West Gove, Pa.) for 1 h at room temperature. […] Lastly, cells were rinsed five times with wash buffer (5 min each) and fluorescence images were acquired on an inverted Zeiss AxioObserver Z1 microscope equipped with an X-Cite® Series 120Q metal halide lamp, appropriate filters and an AxioCam MRm camera.

[2] = tested on: C57BL-6J mice; assay: Mouse subcutaneous implantation of growth factor-biopatterned QHM grafts; type: in vivo; details: 3 μg patterned on fibrin-coated QHM polymer, 14 days subcutaneous
Experimental: Mouse subcutaneous surgeries were performed in accordance with the guidelines established by Stanford University's Administrative Panel on Laboratory Animal Care. Wild-type C57BL-6J mice (Charles River Laboratories, Wilmington, Mass.) between 8 and 12 weeks of age (20-30 g) were used in this study. All mice were maintained in the Stanford Animal Facility, with a 12:12 h light-dark cycle and free access to standard laboratory food and water. Mice were anesthetized by inhalation with isoflurane (4% for induction, 2% for maintenance, Abbott Laboratories, Chicago) as well as administered 0.05 mg/kg Buprenorphine (Hospira Inc., Lake Forest, Ill.) and 25 mg/kg Cefazolin (Thermo Fisher Scientific, Waltham, Mass.) as an analgesic and anti-infective, respectively. Grafts (Square specimens 6×6×1 mm) were comprised of 0 s UV and 300 s UV QHM polymer regions (each measuring 3×3×1 mm) biopatterned with 1) no growth factor, 2) 3 μg FGF-2 on 0 s UV QHM polymer region and 3 μg BMP-2 on 300 s UV QHM polymer region or 3) 3 μg GDF-7 on 0 s UV QHM polymer region and 3 μg BMP-2 on 300 s UV QHM polymer region. Under sterile conditions, a 2.5 cm skin incision was made and grafts were sutured subcutaneously to the skin using 3-0 Nylon sutures (Oasis, Med-Vet International, Mettawa, Ill.) in a bilateral manner. Subsequently, the skin was re-approximated and closed with 3-0 Nylon sutures. […]

[3] = tested on: C2C12 cells; assay: SCX immunofluorescence, C2C12 tenocyte differentiation on QHM polymers; type: cell-based, mouse; details: fibrin-coated QHM polymers in vitro, 3 days
Experimental: as §1
For studies on the effect of Young's moduli on osteoblast or tenocyte differentiation (using uniform or 0 s:300 s UV mechanically-graded QHM polymer samples), C2C12 cells were seeded into 24 well plates containing uncoated QHM polymer samples (circular discs approximately 1 cm in diameter or rectangular specimens measuring approximately 0.5 cm×1 cm) at a density of 7.47×10^4 cells per cm^2 overnight in DMEM, 10% FBS and 1% PS media. […] Media were changed every 48 h. SCX staining was performed at 3 days post-seeding. RUNT-RELATED TRANSCRIPTION FACTOR-2 (RUNX-2) or OSTEOCALCIN (OCN) staining was performed at 4 days post-seeding. […]
as §2

[4] = tested on: C2C12 cells; assay: ALP staining, C2C12 osteoblast differentiation on QHM polymers with BMP-2 in media; type: cell-based, mouse; details: 25 μM blebbistatin
Experimental: ALP activity was detected according to the manufacturer's instructions (Sigma Aldrich, St. Louis, Mo.) as previously described with minor modifications^18,19.
For studies on the effect of Young's moduli on osteoblast differentiation (using uniform QHM polymer samples), C2C12 cells were seeded into 24 well plates containing uncoated QHM polymer samples (circular discs approximately 1 cm in diameter) at a density of 7.47×10^4 cells per cm^2 overnight in DMEM, 10% FBS and 1% PS media. […] Media were changed every 48 h. ALP staining was performed at 4, 8 and 14 days.
For studies on the effect of Young's moduli on osteoblast differentiation (using 0 s:300 s UV mechanically-graded QHM polymer samples), C2C12 cells were seeded into 24 well plates containing uncoated QHM polymer samples (rectangular specimens measuring approximately 0.5 cm×1 cm) at a density of 7.47×10^4 cells per cm^2 overnight in DMEM, 10% FBS and 1% PS media. […] Media were changed every 48 h. ALP staining were performed at 3 days post-seeding.
At designated time points, cells were fixed for 1 min in 3.7% formaldehyde and samples were incubated with ALP stain for 1 h. Color images of samples were acquired using an inverted Zeiss AxioObserver Z1 microscope equipped with an AxioCam ICC color camera and a Nikon D70 Digital camera (Nikon Corp., Tokyo, Japan). Where required, the ALP-stained images were quantified by calculating the average pixel intensity in Adobe Photoshop 7.0 as previously described^18,19.

| Molecule | TENASCIN C expression relative to untreated controls [1] | TENOMODULIN expression relative to untreated controls [1] | Tissue formed on growth factor pattern in vivo [2] | C2C12 SCX expression on FGF-2 patterns relative to off pattern controls [3] | Effect on BMP-2-induced ALP activity on QHM polymers ([4]; 4 days) | Effect on C2C12 ALP activity on TCPS ([4]; 4 days) | Inhibitory effect on ALP activity ([4]; 8 days) | Inhibitory effect on ALP activity ([4]; 14 days) |
| --- | --- | --- | --- | --- | --- | --- | --- | --- |
| FGF-2: fibroblast growth factor-2 (Peprotech), tendon-promoting cue | increased TENASCIN C expression | increased TENOMODULIN expression | reminiscent of immature tendon | largely increased |  |  |  |  |
| Cc1ccc2c(c1)C(=O)C1(O)CCN(c3ccccc3)C1=N2 (stereo not drawn) [blebbistatin] |  |  |  |  | inhibited slightly | did not inhibit | occurred only on 0 s UV QHM polymer | no longer observed |
| B1 |  |  | reminiscent of immature tendon |  |  |  |  |  |
